Assay results taken from patent US6825230B2, “Spiro and dispiro 1,2,4-trixolane antimalarials” (Medicines for Malaria Venture MMV, priority 2002, dated 2004).

Legend:
[1] = system: Schistosoma mansoni 21-day-old schistosomules; assay: Effect on 21-day-old schistosomules in infected mice; format: in vivo; details: single 200 mg/kg per os, 21-day-old schistosomules; for % reduction of schistosomule growth at day 21 after per os application of 200 mg/kg, FWR (%): female worm reduction rate; for % reduction of schistosomule growth at day 21 after per os application of 200 mg/kg, TWR (%): total worm reduction rate
Procedure: Mice were infected with 100 Schistosoma mansoni cercariae on day 21 post-treatment. Each group was treated per os with trioxolanes at a single dose of 200 mg/kg. […] All groups were killed 4 weeks after treatment and the liver and intestine were removed and separated. The liver and intestine were compressed and alive male and female worms could be seen and counted. The effect of the compounds was evaluated by mean total and female worm burden.

[2] = system: Schistosoma mansoni adult worms (49-day-old); assay: Effect on adult schistosomes (49-day-old) in infected mice; format: in vivo; details: for % reduction of adult worms growth at day 49 after per os application of 400 mg/kg, TWR (%) / Adult worms day 49, per os 400 mg/kg, DEAD WORM (%): single 400 mg/kg per os
Procedure: Mice were infected with 100 Schistosoma mansoni cercariae on day 49 post-treatment. Each group was treated per os with OZ compounds at single doses of 200, 400, and 600 mg/kg. Untreated mice served as the control. All groups were killed 4 weeks after treatment and the liver and intestine were removed and separated. The liver and intestine were compressed and alive male and female worms could be seen and counted.

[3] = 49-day-old adults, total worm reduction rate
[4] = percentage of dead worm in the liver

In the case of `CCOC(=O)N1CCC2(CC1)OOC1(O2)C2CC3CC(C2)CC1C3` (stereo not shown) [OZ23], the “% reduction of schistosomule growth at day 21 after per os application of 200 mg/kg, FWR (%)” value [1] is reported as 84%, the “% reduction of schistosomule growth at day 21 after per os application of 200 mg/kg, TWR (%)” value [1] is reported as 90% and the “% reduction of adult worms growth at day 49 after per os application of 400 mg/kg, TWR (%)” value [2, 3] is reported as 0%. The “Adult worms day 49, per os 400 mg/kg, DEAD WORM (%)” value [2, 4] was 4%.

With `O=C(c1ccccc1)N1CCC2(CC1)OOC1(O2)C2CC3CC(C2)CC1C3` (stereo not shown) [OZ24] the “% reduction of schistosomule growth at day 21 after per os application of 200 mg/kg, FWR (%)” value [1] was 61%, the “% reduction of schistosomule growth at day 21 after per os application of 200 mg/kg, TWR (%)” value [1] was 65% and the “% reduction of adult worms growth at day 49 after per os application of 400 mg/kg, TWR (%)” value [2, 3] was 21%. The “Adult worms day 49, per os 400 mg/kg, DEAD WORM (%)” value [2, 4] was 0%.

With `CCCC1CCC2(CC1)OOC1(O2)C2CC3CC(C2)CC1C3` (stereo not shown) [OZ25] the “% reduction of schistosomule growth at day 21 after per os application of 200 mg/kg, FWR (%)” value [1] was 84%, the “% reduction of schistosomule growth at day 21 after per os application of 200 mg/kg, TWR (%)” value [1] was 86% and the “% reduction of adult worms growth at day 49 after per os application of 400 mg/kg, TWR (%)” value [2, 3] was 46%. For the same molecule, the “Adult worms day 49, per os 400 mg/kg, DEAD WORM (%)” value [2, 4] was 34%.

In the case of `O=[N+]([O-])c1ccc(NN=C2CCC3(CC2)OOC2(O3)C3CC4CC(C3)CC2C4)c([N+](=O)[O-])c1` (stereo not shown) [OZ29], the “% reduction of schistosomule growth at day 21 after per os application of 200 mg/kg, FWR (%)” value [1] is reported as 20%, the “% reduction of schistosomule growth at day 21 after per os application of 200 mg/kg, TWR (%)” value [1] is reported as 28% and the “% reduction of adult worms growth at day 49 after per os application of 400 mg/kg, TWR (%)” value [2, 3] is reported as 0/0%. The “Adult worms day 49, per os 400 mg/kg, DEAD WORM (%)” value [2, 4] was 0/0%.

With `c1ccc2c(c1)COC1(CCC3(CC1)OOC1(O3)C3CC4CC(C3)CC1C4)OC2` (stereo not shown) [OZ31] the “% reduction of schistosomule growth at day 21 after per os application of 200 mg/kg, FWR (%)” value [1] was 63%, the “% reduction of schistosomule growth at day 21 after per os application of 200 mg/kg, TWR (%)” value [1] was 60% and the “% reduction of adult worms growth at day 49 after per os application of 400 mg/kg, TWR (%)” value [2, 3] was 4/4%. For the same molecule, the “Adult worms day 49, per os 400 mg/kg, DEAD WORM (%)” value [2, 4] was 4/4%.

With `OC1CCC2(CC1)OOC1(O2)C2CC3CC(C2)CC1C3` (stereo not shown) [OZ32] the “% reduction of schistosomule growth at day 21 after per os application of 200 mg/kg, FWR (%)” value [1] was 70%, the “% reduction of schistosomule growth at day 21 after per os application of 200 mg/kg, TWR (%)” value [1] was 73% and the “% reduction of adult worms growth at day 49 after per os application of 400 mg/kg, TWR (%)” value [2, 3] was 27%. For the same molecule, the “Adult worms day 49, per os 400 mg/kg, DEAD WORM (%)” value [2, 4] was 28%.

In the case of `CC1(C)COC2(CCC3(CC2)OOC2(CC(C)(C)CC(C)(C)C2)O3)OC1` [OZ36], the “% reduction of schistosomule growth at day 21 after per os application of 200 mg/kg, FWR (%)” value [1] is reported as 12%, the “% reduction of schistosomule growth at day 21 after per os application of 200 mg/kg, TWR (%)” value [1] is reported as 16% and the “% reduction of adult worms growth at day 49 after per os application of 400 mg/kg, TWR (%)” value [2, 3] is reported as 0/0%. The “Adult worms day 49, per os 400 mg/kg, DEAD WORM (%)” value [2, 4] was 0/0%.

In the case of `O=C(O)C1CCC2(CC1)OOC1(O2)C2CC3CC(C2)CC1C3` (stereo not shown) [OZ71], the “% reduction of schistosomule growth at day 21 after per os application of 200 mg/kg, FWR (%)” value [1] is reported as 85%, the “% reduction of schistosomule growth at day 21 after per os application of 200 mg/kg, TWR (%)” value [1] is reported as 91% and the “% reduction of adult worms growth at day 49 after per os application of 400 mg/kg, TWR (%)” value [2, 3] is reported as 0%. The “Adult worms day 49, per os 400 mg/kg, DEAD WORM (%)” value ([2]; percentage of dead worm in the liver, listed as OZ 71) was 16%.

With `C1CC2(CCN1)OOC1(O2)C2CC3CC(C2)CC1C3.Cl` (stereo not shown) [OZ80] the “% reduction of schistosomule growth at day 21 after per os application of 200 mg/kg, FWR (%)” value [1] was 75%, the “% reduction of schistosomule growth at day 21 after per os application of 200 mg/kg, TWR (%)” value [1] was 79% and the “% reduction of adult worms growth at day 49 after per os application of 200 mg/kg, TWR (%)” value ([2]; single 200 mg/kg per os, 49-day-old adults, total worm reduction rate) was 0%. The “Adult worms day 49, per os 200 mg/kg, DEAD WORM (%)” value ([2]; single 200 mg/kg per os, percentage of dead worm in the liver) was 3%.

With `OCCC1CCC2(CC1)OOC1(O2)C2CC3CC(C2)CC1C3` (stereo not shown) [OZ89] the “% reduction of schistosomule growth at day 21 after per os application of 200 mg/kg, FWR (%)” value [1] was 81%, the “% reduction of schistosomule growth at day 21 after per os application of 200 mg/kg, TWR (%)” value [1] was 86% and the “% reduction of adult worms growth at day 49 after per os application of 400 mg/kg, TWR (%)” value [2, 3] was 0%. The “Adult worms day 49, per os 400 mg/kg, DEAD WORM (%)” value [2, 4] was 17%.
